Patent publication US8518973B2, “Compounds having 4-pyridylalkylthio group as a substituent” (Santen Pharmaceutical Co., Ltd., priority 2003, dated 2013)

System: VEGF-induced HUVEC growth
Experiment: VEGF-induced HUVEC growth reaction evaluation system (cell growth inhibitory action test)
Format: cell-based
Conditions: Homo sapiens, 72 h, 20 μg/ml test compound solution added 5 μl per well (100 μl), VEGF solution 400 ng/ml 5 μl per well, three days, absorbance at 450 nm, read-out: Cell growth inhibition rate (%)
Method: Cell growth inhibitory action tests were carried out using a VEGF-induced HUVEC growth reaction evaluation system (HUVEC stands for human umbilical vein endothelial cells), which is one of widely-used methods of evaluating in vitro angiogenesis inhibitory effects of drugs.
As one of widely-used methods of evaluating angiogenesis inhibitory effects of drugs, a cell growth inhibitory action test using a VEGF-induced HUVEC growth reaction evaluation system was reported in Cancer Res., 59, 99-106(1999). According to the method described in the above-mentioned literature, cell growth inhibitory action tests of the present compounds were carried out, their cell growth inhibition rates were calculated, and angiogenesis inhibitory effects of the present compounds were evaluated using the obtained rates as indexes.
Each test compound was dissolved in dimethyl sulfoxide (hereinafter abbreviated as “DMSO”), and the obtained solution was diluted with commercially available phosphoric acid buffer solution (hereinafter abbreviated as “PBS”) to prepare a 20 μg/ml test compound solution.
HUVEC was suspended in a 0.5% fetal bovine serum (hereinafter abbreviated as “FBS”)-containing F12K medium to prepare a 2×10^4 cells/ml HUVEC suspension.
VEGF was dissolved in 0.1% bovine serum albumin-containing PBS, and the obtained solution was diluted with the 0.5% FBS-containing F12K medium to prepare a 400 ng/ml VEGF solution.
• 1) The HUVEC suspension was inoculated in each amount of 100 μl into each well of a 96-well plate coated with I type collagen (2×10^3 cells per well). • 2) One day after inoculation, the test compound solution was added in an amount of 5 μl per well. • 3) One hour after adding the test compound solution, the VEGF solution was added in an amount of 5 μl per well. • 4) Three days after adding the VEGF solution, cell counting kit-8(Dojin Chemical Co., Ltd.) was added in an amount of 10 μl per well. • 5) After three hours, the above-mentioned plate was attached to an absorptiometer (multi label counter ARVO), and absorbance at 450 nm of each well suspension (hereinafter referred to as “test compound suspension”) was measured. • 6) A test was carried out in the same manner as in 1) to 5) except that 1.0% DMSO was used instead of the test compound solution.
Incubation was carried out under conditions of 37° C., 5% carbon dioxide and 95% air in an incubator throughout the above-mentioned test steps.
Cell growth inhibition rates, which are indexes of angiogenesis inhibitory effects, were calculated by the following calculation equation.

| Structure (SMILES) | inhibition at 20 µg/mL (stock) [%] |
| --- | --- |
| Cc1ccc(NC(=O)c2sccc2SCc2ccncc2)cc1F [1-248, N-(3-Fluoro-4-methylphenyl)-3-(4-pyridylmethylthio)thiophene-2-carboxamide] | 75 |
| O=C(Nc1cccc(Cl)c1)c1sccc1SCc1ccncc1 [1-249, N-(3 Chlorophenyl)3-(4-pyridylmethylthio)thiophene-2-carboxamide] | 100 |
| Cc1cc(C)cc(NC(=O)c2sccc2SCc2ccnc(Cl)c2)c1 [1-251, 3-(2-Chloropyridin-4-ylmethylthio)-N-(3,5-dimethylphenyl)thiophene-2-carboxamide] | 77 |
| Cc1cc(NC(=O)c2sccc2SCc2ccncc2)ccc1F [1-252, N-(4-Fluoro-3-methylphenyl)-3-(4-pyridylmethylthio)thiophene-2-carboxamide] | 100 |
| Cc1ccc(NC(=O)c2sccc2SCc2ccncc2)cc1C [1-253, N-(3,4-Dimethylphenyl)-3-(4-pyridylmethylthio)thiophene-2-carboxamide] | 100 |
| O=C(Nc1ccc(C(F)(F)F)cc1)c1sccc1SCc1ccncc1 [1-255, 3-(4-Pyridylmethylthio)-N-(4-trifluoromethylphenyl)thiophene-2-carboxamide] | 85 |
| CC(C)(C)c1ccc(NC(=O)c2sccc2SCc2ccncc2)cc1 [1-256, N-(4-tert-Butylphenyl)-3-(4-pyridylmethylthio)thiophene-2-carboxamide] | 100 |
| Cc1cccc(NC(=O)c2sccc2SCc2ccncc2)c1 [1-263, N-(3-Methylphenyl)-3-(4-pyridylmethylthio)thiophene-2-carboxamide] | 100 |
| O=C(Nc1ccc(F)c(F)c1)c1sccc1SCc1ccncc1 [1-269, N-(3,4-Difluorophenyl)-3-(4-pyridylmethylthio)thiophene-2-carboxamide] | 53 |
| CCCc1ccc(NC(=O)c2sccc2SCc2ccncc2)cc1 [1-270, N-(4-n-Propylphenyl)-3-(4-pyridylmethylthio)thiophene-2-carboxamide] | 99 |
| O=C(Nc1ccc(OC(F)(F)F)cc1)c1sccc1SCc1ccncc1 [1-273, 3-(4-Pyridylmethylthio)-N-(4-trifluoromethoxyphenyl)thiophene-2-carboxamide] | 100 |
| O=C(Nc1cc2ccccc2cn1)c1sccc1SCc1ccncc1 [1-274, N-(3-Isoquinolyl)-3-(4-pyridylmethylthio)thiophene-2-carboxamide] | 95 |
| O=C(Nc1cccc(C(F)(F)F)c1)c1sccc1SCc1ccncc1 [1-276, 3-(4-Pyridylmethylthio)-N-(3-trifluoromethylphenyl)thiophene-2-carboxamide] | 100 |
| O=C(Nc1ccc2c(c1)CCC2)c1sccc1SCc1ccncc1 [1-283, N-(5-Indanyl)-3-(4-pyridylmethylthio)thiophene-2-carboxamide] | 100 |
| Cc1cccc(NC(=O)c2ccsc2SCc2ccncc2)c1 [1-285, N-(3-Methylphenyl)-2-(4-pyridylmethylthio)thiophene-3-carboxamide] | 100 |
| O=C(Nc1ccc2c(c1)CCC2)c1ccsc1SCc1ccncc1 [1-287, N-(5-Indanyl)-2-(4-pyridylmethylthio)thiophene-3-carboxamide] | 95 |
| Cc1cc(NC(=O)c2ccsc2SCc2ccncc2)ccc1Br [1-289, N-(4-Bromo-3-methylphenyl)-2-(4-pyridylmethylthio)thiophene-3-carboxamide] | 100 |
| O=C(Nc1ccc(C(F)(F)F)cc1)c1ccsc1SCc1ccncc1 [1-290, 2-(4-Pyridylmethylthio)-N-(4-trifluoromethylphenyl)thiophene-3-carboxamide] | 100 |

| Structure (SMILES) | inhibition at 20 µg/mL (stock) [%] |
| --- | --- |
| Cc1cc(C)cc(NC(=O)c2ccsc2SCc2ccncc2)c1 [1-291, N-(3,5-Dimethylphenyl)-2-(4-pyridylmethylthio)thiophene-3-carboxamide] | 100 |
| Cc1cccc(NC(=O)c2cscc2SCc2ccncc2)c1 [1-292, N-(3-Methylphenyl) 4 (4-pyridylmethylthio)thiophene-3 carboxamide] | 100 |
| COc1cc(CSc2ncccc2C(=O)Nc2cc(C)cc(C)c2)ccn1 [1-300, N-(3,5-Dimethylphenyl)-2-(2-methoxypyridin-4-ylmethylthio)pyridine-3-carboxamide] | 100 |
| Cc1cc(C)cc(NC(=O)c2cccnc2SCc2ccnc(C)c2)c1 [1-307, N-(3,5-Dimethylphenyl)-2-(2-methylpyridin-4-ylmethylthio)pyridine-3-carboxamide] | 100 |
| Cc1cc(CSc2ncccc2C(=O)Nc2ccc(OC(F)(F)F)cc2)ccn1 [1-308, 2-(2-Methylpyridin-4-ylmethylthio)-N-(4-trifluoromethoxyphenyl)pyridine-3-carboxamide] | 92 |
| O=C(Nc1ccc(Cl)cc1)c1cccnc1SCc1cc[n+]([O-])cc1 [4-1, N-(4-Chlorophenyl)-2-(1-oxopyridin-4-ylmethylthio)pyridine-3-carb oxamide] | 93 |
| Cc1cccc(NC(=O)c2cccnc2SCc2cc[n+]([O-])cc2)c1 [4-3, N-(3-Methylphenyl)-2-(1-oxopyridin-4-ylmethylthio)pyridine-3-carboxamide] | 100 |
| Cc1ccc(NC(=O)c2cccnc2SCc2cc[n+]([O-])cc2)cc1C [4-5, N-(3,4-Dimethylphenyl)-2-(1-oxopyridin-4-ylmethylthio)pyridine-3-carboxamide] | 100 |
| CC(C)c1cccc(NC(=O)c2cccnc2SCc2cc[n+]([O-])cc2)c1 [4-6, N-(3-Isopropylphenyl)-2-(1-oxopyridin-4-ylmethylthio)pyridine-3-carboxamide] | 100 |
| Cc1cc(NC(=O)c2cccnc2SCc2cc[n+]([O-])cc2)ccc1F [4-7, N-(4-Fluoro-3-methylphenyl)-2-(1-oxopyridin-4-ylmethylthio)pyridine-3-carboxamide] | 100 |
| CC(C)(C)c1ccc(NC(=O)c2cccnc2SCc2cc[n+]([O-])cc2)cc1 [4-10, N-(4-tert-Butylphenyl)-2-(1-oxopyridin-4-ylmethylthio)pyridine-3-carboxamide] | 100 |
| CC(Sc1ncccc1C(=O)Nc1cccc(Cl)c1)c1ccncc1 (stereo not drawn) [5-2, N-(3-Chlorophenyl)-2-[1-(4-pyridyl)ethylthio]pyridine-3-carboxamide] | 96 |
| Cc1cc(C)cc(NC(=O)c2cccnc2SCc2ccnc(C(=O)O)c2)c1 [6-1, 2-(2-Carboxypyridin-4-ylmethylthio)-N-(3,5-dimethylphenyl)pyridine-3-carboxamide] | 72 |
| CCCNC(=O)c1cc(CSc2ncccc2C(=O)Nc2cc(C)cc(C)c2)ccn1 [7-1, N-(3,5-Dimethylphenyl)-2(2-n-propylaminocarbonylpyridin-4-yl-methylthio)pyridine 3 carboxamide] | 100 |
| Cc1cc(C)cc(NC(=O)c2cccnc2SCc2ccnc(C(=O)Nc3ccc(Cl)cc3)c2)c1 [7-2, 2-[2-(4-Chlorophenylaminocarbonyl)pyridin-4-ylmethylthio]-N-(3,5-dimethylphenyl)pyridine-3-carboxamide] | 100 |
| CNC(=O)c1cc(CSc2ncccc2C(=O)Nc2cc(C)cc(C)c2)ccn1 [7-3, N-(3,5-Dimethylphenyl)-2-(2-methylaminocarbonylpyridin-4-ylmethylthio)pyridine-3-carboxamide] | 100 |
| COCCNC(=O)c1cc(CSc2ncccc2C(=O)Nc2cc(C)cc(C)c2)ccn1 [7-4, N-(3,5-Dimethylphenyl)-2-[2-(2-methoxyethylaminocarbonyl)pyridin-4-ylmethylthio]pyridine-3-carboxamide] | 100 |
| Cc1cc(C)cc(NC(=O)c2cccnc2SCc2ccnc(C(N)=O)c2)c1 [8-1, 2-(2-Carbamoylpyridin-4-ylmethylthio)-N-(3,5-dimethylphenyl)pyridine-3-carboxamide] | 100 |
